Test results taken from patent publication US20160038526A1, “TREATMENT OF PROSTATE CANCER” (THOMAS JEFFERSON UNIVERSITY, priority 2012, published 2016).

Legend:
Stat5 = target: T1, Stat5 (Homo sapiens, UniProt P42229); assay: Prolactin-induced Stat5 phosphorylation in CWR22Rv1 cells (immunoprecipitation/Western blot); format: cell-based; conditions: CWR22Rv1 cells, 25, 50 and 100 μM for 2 h, 10 nM Prl 30 minutes
T1 construct: endogenous in cells; host or cells: CWR22Rv1
Description: CWR22Rv1 cells were starved for 24 h in serum-free medium, treated N6BAP at 25, 50 and 100 μM concentrations for 2 h, followed by stimulation with 10 nM Prl for 30 minutes. Stat5a and Jak2 were immunoprecipitated with anti-Stat5a or anti-Jak2 pAbs. Immunoprecipitates of CWR22Rv1 cells were blotted with anti-PYStat5, anti-Stat5a/b mAb or anti-PY mAb (for Jak2). Whole cell lysates were immunoblotted with anti-actin pAb for loading control. Because SH2-domain of Stat5 mediates the recruitment of Stat5 to the Prl-receptor-Jak2-complex and Stat5 phosphorylation, N6BAP inhibits Prl-induced phosphorylation of Stat5.
The protocol in more detail comprised the following. Cell pellets were solubilized in lysis buffer [10 mM Tris-HCl (pH 7.6), 5 mM EDTA, 50 mM sodium chloride, 30 mM sodium pyrophosphate, 50 mM sodium fluoride, 1 mM sodium orthovanadate, 1% Triton X-100, 1 mM phenylmethylsulfonyl fluoride, 5 μg/mlaprotinin, 1 μg/ml pepstatin A, and 2 μg/ml leupeptin], rotated end-over-end at 4° C. for 60 min, and insoluble material was pelleted at 12,000×g for 30 min at 4° C. The protein concentrations of clarified cell lysates were determined by simplified Bradford method (Bio-Rad Laboratories, Hercules, Calif.). Stat5a, Stat5b and Jak2 were immunoprecipitated from whole cell lysates with anti-Stat5a, anti-Stat5b (4 μl/ml; Millipore, Billerica, Mass.) or anti-Jak2 (Millipore) pAbs. […]

Bcl-xL = assay: Expression of Stat5 target gene Bcl-xL in CWR22Rv1 and LNCaP cells (immunoblot); format: cell-based, human; conditions: 25 μM over time
Description: Exponentially growing CWR22Rv1 and LNCaP cells were treated with N6BAP or the control compound C5 (Ctrl) for 48 h at concentrations indicated in FIG. 6 and whole cell lysates were immunoblotted with anti-cyclinD1 mAb. Exponentially growing CWR22Rv1 and LNCaP cells were treated with N6BAP or control compound C5 (Ctrl) at 25 μM for the periods of time indicated in FIG. 6, and whole cell lysates were immunoblotted with anti-cyclinD1 mAb or anti-Bcl-X1 pAb. Cell pellets were solubilized in lysis buffer [10 mM Tris-HCl (pH 7.6), 5 mM EDTA, 50 mM sodium chloride, 30 mM sodium pyrophosphate, 50 mM sodium fluoride, 1 mM sodium orthovanadate, 1% Triton X-100, 1 mM phenylmethylsulfonyl fluoride, 5 μg/ml aprotinin, 1 μg/ml pepstatin A, and […]], rotated end-over-end at 4° C. for 60 min, and insoluble material was pelleted at 12,000×g for 30 min at 4° C. The protein concentrations of clarified cell lysates were determined by simplified Bradford method (Bio-Rad Laboratories, Hercules, Calif.). The following primary antibodies were used for Western blotting, at the following concentrations: anti-β-actin pAb (1:4,000; Sigma), anti-cyclin D1 mAb (1:1000, BD Biosciences) and Bcl-xL pAb (1:1000, Cell Signaling, Danvers, Mass.).

LNCaP cells = assay: Cell viability, MTS metabolic activity assay, LNCaP; format: cell-based, human; conditions: 72 hours
Description: (§1) CWR22Rv1 prostate cancer cells were treated with N6BAP or the control compound C5 (Ctrl) at 25 μM concentration or vehicle for 24 h. Following trypan blue exclusion, the attached viable vs. de-attached dead cells were counted. […] The bars indicate mean±SD of triplicate wells. In another assay, CWR22Rv1, LNCaP and DU145 cells were treated with N6BAP, the control compound C5 (Ctrl) or vehicle at indicated concentrations. The fraction of alive cells was determined by MTS ([…]) metabolic activity assay (CellTiter 96® AQueous Assay kit). The results are shown in FIGS. 9C, 9D and 9E, respectively.

DU145 cells = assay: Cell viability, MTS metabolic activity assay, DU145; format: cell-based, human; conditions: DU145, 72 hours
Description: as §1

[1] = system: HCT116 human liver cancer cells; assay: Cell viability assay, HCT116; format: cell-based
Description: as §1
The procedure of Example 9 was followed, substituting cells of the following solid tumor cell lines for the cells treated in Example 9: A549 human lung cancer cells, CAPAN human pancreatic cancer cells, T47D human breast cancer cells, […], A2058 human melanoma and COS-7 monkey fibroblast cell lines.

Stat3 = assay: Nuclear Stat3 immunostaining in CWR22Rv1 xenograft tumors; format: in vivo, nude mice; conditions: CWR22Rv1 xenograft tumors of Example 10
Description: Nuclear active Stat5a/b or nuclear active Stat3 were analyzed by immunostaining with an anti-Stat5a/b or anti-Stat3 antibody, respectively, and biotin-streptavidin amplified peroxidase antiperoxidase immunodetection of paraffin-embedded sections of the prostate xenograft tumors of Example 10. Anti-Stat5a/b (mAb) (55 ng/ml) (Santa Cruz Biotechnology) was used as the primary antibody and antigen-antibody complexes were detected by appropriate biotinylated goat secondary antibodies (Biogenex Laboratories) followed by streptavidin-horseradish-peroxidase complex, and 3,3′-diaminobenzidine as chromogen and Mayer hematoxylin as counterstain. Three microscopic views of each tumor (ten tumors per each treatment group) were photographed at 20× magnification. Nuclear Stat5 and Stat3 indexes were determined by counting epithelial cells with nuclear Stat5a/b immunostaining-positive cells per total number of epithelial cells per view. The counts were averaged within the tumors in a given treatment group.

T1 sequence (P42229 whole entry): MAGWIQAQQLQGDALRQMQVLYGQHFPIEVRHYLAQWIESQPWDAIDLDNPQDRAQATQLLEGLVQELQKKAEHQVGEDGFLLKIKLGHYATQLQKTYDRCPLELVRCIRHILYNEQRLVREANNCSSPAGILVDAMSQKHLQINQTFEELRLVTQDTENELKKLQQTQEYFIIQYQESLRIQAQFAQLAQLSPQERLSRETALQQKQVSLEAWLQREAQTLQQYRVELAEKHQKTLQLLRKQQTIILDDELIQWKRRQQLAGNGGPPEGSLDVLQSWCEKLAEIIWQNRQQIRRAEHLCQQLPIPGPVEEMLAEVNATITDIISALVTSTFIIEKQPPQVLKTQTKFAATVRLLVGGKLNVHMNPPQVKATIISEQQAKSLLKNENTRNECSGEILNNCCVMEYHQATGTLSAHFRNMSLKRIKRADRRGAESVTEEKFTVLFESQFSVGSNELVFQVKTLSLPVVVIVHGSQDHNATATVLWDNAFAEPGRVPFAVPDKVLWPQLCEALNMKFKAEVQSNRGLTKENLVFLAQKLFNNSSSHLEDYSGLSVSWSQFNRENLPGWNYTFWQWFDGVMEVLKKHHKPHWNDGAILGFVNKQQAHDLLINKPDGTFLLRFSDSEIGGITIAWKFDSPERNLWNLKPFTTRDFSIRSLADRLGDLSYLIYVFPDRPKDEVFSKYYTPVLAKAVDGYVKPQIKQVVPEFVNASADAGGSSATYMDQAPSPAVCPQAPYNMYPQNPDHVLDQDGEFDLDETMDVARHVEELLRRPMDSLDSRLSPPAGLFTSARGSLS

`O=P(O)(O)OC[C@H]1O[C@@H](n2cnc3c(NCc4ccccc4)ncnc32)[C@H](O)[C@@H]1O` [N6BAP, N^6-benzyladenosine-5′-monophosphate] was tested, and the “Prl-induced phosphorylation of Stat5” value (Stat5) was “inhibits Stat5 phosphorylation”, the “expression of Bcl-xL” value (Bcl-xL) was “down-regulates expression” and the “number of viable cells” value (LNCaP cells) was “decreases the number of viable cells”. The “number of viable cells” value (DU145 cells) was “decreases the number of viable cells”, the cell viability [1] was “did not affect the viability” and the “nuclear Stat3 in xenograft tumors” value (Stat3) was “without affecting nuclear Stat3”.
